Results: US10881599B2, “Whitening composition including novel kaempferol-based compound derived from post-fermented tea” (AMOREPACIFIC CORPORATION, priority 2017, dated 2021)

Biological target: mushroom tyrosinase
Experiment: Tyrosinase activity-inhibitory effect
Assay type: biochemical
Conditions: L-tyrosine, 20 minutes at 37° C., absorbance at 490 nm
Description: The tyrosinase activity-inhibitory effect of new material 33 was evaluated. Specifically, tyrosinase and tyrosine derived from mushrooms were obtained from Sigma Chemical. […] Tyrosinase activity was assessed by measuring the absorbance at 490 nm using a microplate reader (Bio-Rad 3550, Richmond, Calif., U.S.A.) after an enzyme reaction for 20 minutes at 37° C.

Structure (SMILES): OC[C@H]1O[C@@H](Oc2ccc(O)cc2)[C@H](O)[C@@H](O)[C@@H]1O [Arbutin, reference compound]
- Tyrosinase activity-inhibitory effect IC50: 149 ppm
